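Values below derive from 48-hour exposures of cells grown in 96-well plates, with endpoints linearly interpolated between the two concentrations bracketing the appropriate inhibition level. GI50: concentration for 50% inhibition of growth.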 Activity calls are given as the source filed them. Rule as the data show it: active = GI50 up to about 1.1 µM and inactive = higher.
Key:
Assay in all cases: DTP human tumour cell line panel, 48 h
NCI-H460 = tested on: NCI-H460
SN12C = tested on: SN12C
SF-295 = tested on: SF-295
OVCAR-8 = tested on: OVCAR-8
BT-549 = tested on: BT-549
RPMI-8226 = tested on: RPMI-8226
SR = tested on: SR
TK-10 = tested on: TK-10
PC-3 = tested on: PC-3
SNB-19 = tested on: SNB-19
MOLT-4 = tested on: MOLT-4
UO-31 = tested on: UO-31
NCI/ADR-RES = tested on: NCI/ADR-RES
SK-OV-3 = tested on: SK-OV-3
SNB-75 = tested on: SNB-75
HCC 2998 = tested on: HCC 2998
KM12 = tested on: KM12
DU-145 = tested on: DU-145
HCT-116 = tested on: HCT-116
HL-60 = tested on: HL-60
SW-620 = tested on: SW-620
MDA-MB-231 = tested on: MDA-MB-231
SF-268 = tested on: SF-268
NCI-H23 = tested on: NCI-H23
HT-29 = tested on: HT-29
T47D = tested on: T47D
A549 = tested on: A549
Malme-3M = tested on: Malme-3M
UACC-257 = tested on: UACC-257
A498 = tested on: A498
SF-539 = tested on: SF-539
OVCAR-4 = tested on: OVCAR-4
RXF 393 = tested on: RXF 393
NCI-H522 = tested on: NCI-H522
SK-MEL-28 = tested on: SK-MEL-28
MDA-MB-435 = tested on: MDA-MB-435
MCF7 = tested on: MCF7
U-251 = tested on: U-251
OVCAR-5 = tested on: OVCAR-5
CCRF-CEM = tested on: CCRF-CEM
SK-MEL-5 = tested on: SK-MEL-5
Hs-578T = tested on: Hs-578T
LOX IMVI = tested on: LOX IMVI
OVCAR-3 = tested on: OVCAR-3
786-0 = tested on: 786-0
HOP-62 = tested on: HOP-62
HOP-92 = tested on: HOP-92
NCI-H226 = tested on: NCI-H226
IGROV-1 = tested on: IGROV-1
HCT-15 = tested on: HCT-15
EKVX = tested on: EKVX
UACC-62 = tested on: UACC-62
ACHN = tested on: ACHN
K562 = tested on: K562
M14 = tested on: M14
MDA-N = tested on: MDA-N
SK-MEL-2 = tested on: SK-MEL-2
COLO 205 = tested on: COLO 205
CAKI-1 = tested on: CAKI-1

For `Cc1nc2ccccc2c(=O)n1NC(=O)c1ccccc1[N+](=O)[O-]`, the GI50 (NCI-H460) was > 100 µM (inactive), the GI50 (SN12C) was > 100 µM (inactive) and the GI50 (SF-295) was > 100 µM (inactive). The GI50 (OVCAR-8) was > 10 µM (inactive), the GI50 (BT-549) was > 100 µM (inactive) and the GI50 (RPMI-8226) was > 100 µM (inactive). The GI50 (SR) was > 100 µM (inactive), the GI50 (TK-10) was > 100 µM (inactive) and the GI50 (PC-3) was > 100 µM (inactive). The GI50 (SNB-19) was > 100 µM (inactive), the GI50 (MOLT-4) was > 100 µM (inactive) and the GI50 (UO-31) was > 100 µM (inactive). The GI50 (NCI/ADR-RES) was > 100 µM (inactive), the GI50 (SK-OV-3) was > 100 µM (inactive) and the GI50 (SNB-75) was 81.5 µM (inactive). The GI50 (HCC 2998) was > 100 µM (inactive), the GI50 (KM12) was > 100 µM (inactive) and the GI50 (DU-145) was > 100 µM (inactive). The GI50 (HCT-116) was > 100 µM (inactive), the GI50 (HL-60) was > 100 µM (inactive) and the GI50 (SW-620) was > 100 µM (inactive). For the same molecule, the GI50 (MDA-MB-231) was > 100 µM (inactive), the GI50 (SF-268) was > 100 µM (inactive) and the GI50 (NCI-H23) was > 100 µM (inactive). For the same molecule, the GI50 (HT-29) was > 100 µM (inactive), the GI50 (T47D) was > 100 µM (inactive) and the GI50 (A549) was > 100 µM (inactive). The GI50 (Malme-3M) was > 100 µM (inactive), the GI50 (UACC-257) was > 100 µM (inactive) and the GI50 (A498) was > 100 µM (inactive). The GI50 (SF-539) was > 100 µM (inactive), the GI50 (OVCAR-4) was > 100 µM (inactive) and the GI50 (RXF 393) was > 10 µM (inactive). For the same molecule, the GI50 (NCI-H522) was > 100 µM (inactive), the GI50 (SK-MEL-28) was > 100 µM (inactive) and the GI50 (MDA-MB-435) was > 100 µM (inactive). The GI50 (MCF7) was > 100 µM (inactive), the GI50 (U-251) was > 100 µM (inactive) and the GI50 (OVCAR-5) was > 100 µM (inactive). The GI50 (CCRF-CEM) was > 100 µM (inactive), the GI50 (SK-MEL-5) was > 100 µM (inactive) and the GI50 (Hs-578T) was 33.9 µM (inactive). The GI50 (LOX IMVI) was > 100 µM (inactive), the GI50 (OVCAR-3) was > 100 µM (inactive) and the GI50 (786-0) was > 100 µM (inactive). For the same molecule, the GI50 (HOP-62) was > 100 µM (inactive), the GI50 (HOP-92) was > 100 µM (inactive) and the GI50 (NCI-H226) was > 100 µM (inactive). The GI50 (IGROV-1) was > 100 µM (inactive), the GI50 (HCT-15) was over 100 µM and the GI50 (EKVX) was 71.4 µM (inactive). For the same molecule, the GI50 (UACC-62) was > 100 µM (inactive), the GI50 (ACHN) was > 100 µM (inactive) and the GI50 (K562) was > 100 µM (inactive). For the same molecule, the GI50 (M14) was > 100 µM (inactive).

In the case of `Cn1c(COC(=O)NC2CCCCC2)c(COC(=O)NC2CCCCC2)c2ccc3ccccc3c21`, the GI50 (NCI-H460) is reported as 3.01 µM (inactive), the GI50 (SF-295) is reported as 41 µM (inactive) and the GI50 (MDA-N) is reported as > 100 µM (inactive). For the same molecule, the GI50 (OVCAR-8) was 40.2 µM (inactive), the GI50 (BT-549) was 55.3 µM (inactive) and the GI50 (RPMI-8226) was 49.2 µM (inactive). For the same molecule, the GI50 (SR) was 2.96 µM (inactive), the GI50 (SK-MEL-2) was 31.6 µM (inactive) and the GI50 (TK-10) was 33.7 µM (inactive). The GI50 (PC-3) was 75.9 µM (inactive), the GI50 (SNB-19) was 55.7 µM (inactive) and the GI50 (MOLT-4) was 9.31 µM (inactive). For the same molecule, the GI50 (UO-31) was 34 µM (inactive), the GI50 (NCI/ADR-RES) was 23.1 µM (inactive) and the GI50 (SK-OV-3) was > 100 µM (inactive). The GI50 (SNB-75) was 26.1 µM (inactive), the GI50 (KM12) was 30 µM (inactive) and the GI50 (HCT-116) was 33 µM (inactive). For the same molecule, the GI50 (SW-620) was 32.4 µM (inactive), the GI50 (MDA-MB-231) was 69.5 µM (inactive) and the GI50 (SF-268) was 22.4 µM (inactive). For the same molecule, the GI50 (NCI-H23) was 21.8 µM (inactive), the GI50 (HT-29) was 53.6 µM (inactive) and the GI50 (T47D) was 50.4 µM (inactive). The GI50 (A549) was 83.8 µM (inactive), the GI50 (Malme-3M) was 36.4 µM (inactive) and the GI50 (UACC-257) was 93.1 µM (inactive). For the same molecule, the GI50 (A498) was 17.5 µM (inactive), the GI50 (COLO 205) was 33.2 µM (inactive) and the GI50 (SF-539) was 16 µM (inactive). The GI50 (OVCAR-4) was 53.3 µM (inactive), the GI50 (RXF 393) was 24 µM (inactive) and the GI50 (NCI-H522) was 16.2 µM (inactive). For the same molecule, the GI50 (MDA-MB-435) was 14.3 µM (inactive), the GI50 (MCF7) was 20.5 µM (inactive) and the GI50 (U-251) was > 100 µM (inactive). The GI50 (OVCAR-5) was 43.5 µM (inactive), the GI50 (CCRF-CEM) was 9.77 µM (inactive) and the GI50 (SK-MEL-5) was 31.7 µM (inactive). The GI50 (Hs-578T) was 33.2 µM (inactive), the GI50 (LOX IMVI) was 23.3 µM (inactive) and the GI50 (OVCAR-3) was 58.3 µM (inactive). The GI50 (786-0) was 13.3 µM (inactive), the GI50 (CAKI-1) was 11 µM (inactive) and the GI50 (HOP-62) was 35 µM (inactive). The GI50 (HOP-92) was 28.1 µM (inactive), the GI50 (NCI-H226) was 23.7 µM (inactive) and the GI50 (IGROV-1) was 19.1 µM (inactive). The GI50 (HCT-15) was 48.1 µM, the GI50 (EKVX) was 47.2 µM (inactive) and the GI50 (UACC-62) was 48.6 µM (inactive). For the same molecule, the GI50 (ACHN) was 17.2 µM (inactive), the GI50 (K562) was 51.2 µM (inactive) and the GI50 (M14) was 67.3 µM (inactive).

— ChEMBL document CHEMBL1201862, “PubChem BioAssay data set” (2004)
